{"source": "patent US20200147233A1", "about": "“METHOD FOR KILLING TUMOR CELLS AND COMPOSITION USED THEREFOR” (PhotoQ3 Inc., priority 2018, published 2020)", "key": {"SAS cells": {"test_system": "SAS cells", "assay": "Cytotoxicity of AlPcS2a itself (photosensitizer tolerance)", "type": "cell-based", "settings": "AlPcS2a alone with light", "procedure": "For the purpose of increasing IT-Robo 1 internalization efficiency, the present inventors have used AlPcS2a, which forms reactive oxygen species as a result of light irradiation and induces destruction of endosome. At first, the cytotoxicity of AlPcS2a itself was examined, and the optimal concentration to various cells was then determined."}, "[1]": {"test_system": "HSQ-89 cell line xenograft", "assay": "Antitumor effects of combined use of IT-Robo1 and PCI on HSQ-89 cell line xenograft mice", "type": "in vivo", "procedure": "A supernatant was aspirated from a 10 cmφ dish, in which the HSQ-89 cell line was cultured, and was then washed with D-PBS (Dulbecco's phosphate buffer). Thereafter, 1 ml of 2.5 g/l trypsin/1 mM EDTA solution was added to the resultant, and the obtained mixture was then left at rest for several minutes in a CO2 incubator. After confirming that the cells were peeled from the bottom surface of the dish, 9 ml of the culture solution was added, and centrifugation was then performed at 1,000 rpm at 4° C. for 5 minutes. After that, a supernatant was aspirated, 10 ml of PBS was then added thereto, and the obtained mixture was then centrifuged at 1,000 rpm at 4° C. for 5 minutes. Thereafter, a supernatant was aspirated, 10 ml of PBS was added thereto, and the number of cells was then counted. Again, 10 ml of PBS was added to the cells, and the obtained mixture was then centrifuged at 1,000 rpm at 4° C. for 5 minutes. Thereafter, a supernatant was aspirated, and PBS was added thereto to a cell density of 2×10^7 cell/ml. Basement Membrane Matrix Gel (Corning, N.Y.) that had been cooled on ice was added in an equal amount, and 2×10^6 cells/200 μl were then collected using a 23G needle and a 1-ml syringe that had been cooled on ice. Subsequently, the collected cells were subcutaneously administered (SC) to the right shoulder of 6-weel-old male BALB/cSlc-nu/nu mice to produce xenograft mice (cancer-bearing mice). The size of a tumor was calculated according to the following equation:\nTumor size=π/6×Height (mm)×Width (mm)×Depth (mm) […]\nWith reference to “Guidelines for Proper Conduct of Animal Experiments (2006)” established by Science Council of Japan, a tumor with a size of 1,000 mm^3 or more, or a drastic reduction in body weight (a reduction of 25% or more of body weight for a week) was set at endpoint, and the mice were euthanized by cervical dislocation. The measurement of a tumor size and evaluation of the body weight were carried out over time, and at the endpoint, the size and weight of the tumor and the body weight were evaluated."}}}
{"substance": "aluminum phthalocyanine disulfonic acid [AlPcS2a]", "values": [{"measurement": "sensitivity of cells to photosensitizer treatment", "setting": "SAS cells", "result": "weak to the treatment with a photosensitizer"}, {"measurement": "ulcer and crust formation at irradiated site", "setting": "[1]; about two days after the irradiation", "result": "an ulcer was formed at the cancer protrusion site"}, {"measurement": "edema at irradiated site", "setting": "[1]; after local irradiation with 650 nm, for several days from the next day, gradually reduced", "result": "edema was found at the irradiated sites and the surrounding portions thereof"}, {"measurement": "time until crust fell off after crust formation", "setting": "[1]; mouse, in vivo", "result": 10, "unit": "days"}]}
